Data as given in ChEMBL document CHEMBL4419169, “Novel Ferroportin Inhibitors” (2018).
Each block holds one compound with its values, some of them ahead of it. Calls of active or inactive are those of the source. No cut-off for these calls is given here.

Key:
[1] = target: T1, Ferroportin (Mus musculus) (UniProt Q9JHI9); assay: Inhibition of ferroportin in mouse J774 cells assessed as induce ferroportin ubiquitination and degradation at 1.5 uM incubated for 120 mins by immunoprecipitation assay; type: cell-based
T1 sequence (whole entry): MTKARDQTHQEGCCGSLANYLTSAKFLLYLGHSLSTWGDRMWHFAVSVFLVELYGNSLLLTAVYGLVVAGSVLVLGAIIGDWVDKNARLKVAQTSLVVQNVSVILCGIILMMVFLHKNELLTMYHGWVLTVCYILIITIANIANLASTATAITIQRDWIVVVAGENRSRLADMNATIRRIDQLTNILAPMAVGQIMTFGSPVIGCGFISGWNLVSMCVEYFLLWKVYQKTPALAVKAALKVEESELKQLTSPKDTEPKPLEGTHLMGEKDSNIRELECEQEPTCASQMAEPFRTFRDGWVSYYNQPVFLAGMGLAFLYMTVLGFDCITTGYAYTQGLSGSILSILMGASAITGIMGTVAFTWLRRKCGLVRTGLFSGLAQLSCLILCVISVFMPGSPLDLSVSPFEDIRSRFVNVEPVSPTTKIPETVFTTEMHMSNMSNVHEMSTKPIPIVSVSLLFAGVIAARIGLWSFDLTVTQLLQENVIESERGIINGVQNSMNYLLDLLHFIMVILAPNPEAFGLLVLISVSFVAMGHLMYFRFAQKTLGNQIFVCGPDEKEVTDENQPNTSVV

[2] = target: T1, Ferroportin (Mus musculus); assay: Inhibition of ferroportin in mouse J774 cells assessed as induce ferroportin ubiquitination and degradation at 1.5 uM incubated for 10 mins by immunoprecipitation assay; type: cell-based
[3] = target: T1, Ferroportin (Mus musculus); assay: Inhibition of ferroportin in mouse J774 cells assessed as induce ferroportin ubiquitination and degradation at 0.3 uM incubated for 120 mins by immunoprecipitation assay; type: cell-based
[4] = target: T1, Ferroportin (Mus musculus); assay: Inhibition of ferroportin in mouse J774 cells assessed as induce ferroportin ubiquitination and degradation at 0.3 uM incubated for 10 mins by immunoprecipitation assay; type: cell-based
Mus musculus [5] = assay: Induction of hypoferremia in orally dosed wild type C57BL/6 mouse assessed as decrease in serum iron levels measured after 3 hrs post dose; type: functional, organism-based
Mus musculus [6] = assay: Prevention of hyperferremia in iron overloaded beta2-microglobulin deficient mouse assessed as reduction in serum iron level at 50 mg/kg, po measured after 3 hrs relative to control; type: functional, organism-based
[7] = target: T1, Ferroportin (Mus musculus); assay: Inhibition of ferroportin in mouse J774 cells assessed as induce ferroportin ubiquitination and degradation at 0.5 uM incubated for 10 mins by immunoprecipitation assay; type: cell-based
[8] = target: T1, Ferroportin (Mus musculus); assay: Inhibition of ferroportin in mouse J774 cells assessed as induce ferroportin ubiquitination and degradation at 0.5 uM incubated for 120 mins by immunoprecipitation assay; type: cell-based
[9] = target: T1, Ferroportin (Mus musculus); assay: Inhibition of ferroportin in mouse J774 cells assessed as induce ferroportin ubiquitination and degradation at 0.2 uM incubated for 120 mins by immunoprecipitation assay; type: cell-based
Mus musculus [10] = assay: Prevention of hyperferremia in iron overloaded beta2-microglobulin deficient male mouse assessed as reduction in serum iron level at 60 mg/kg, po measured after 3 hrs relative to control; type: functional; set-up: scale not given: the % may be the effect or the level left
[11] = target: T1, Ferroportin (Mus musculus); assay: Inhibition of ferroportin in mouse J774 cells assessed as induce ferroportin ubiquitination and degradation at 0.2 uM incubated for 10 mins by immunoprecipitation assay; type: cell-based
Mus musculus [12] = assay: Prevention of hyperferremia in iron overloaded beta2-microglobulin deficient female mouse assessed as reduction in serum iron level at 60 mg/kg, po measured after 3 hrs relative to control; type: functional; set-up: scale not given: the % may be the effect or the level left
Rattus norvegicus = assay: Prevention of iron absorption in orally dosed anemic Wistar rat model of iron absorption assessed as inhibition of increase in serum iron pre-dosed 1 hr before ferrous sulfate dosing and measured 3 hours after iron dosing; type: functional, organism-based
[13] = target: T1, Ferroportin (Mus musculus); assay: Inhibition of ferroportin in mouse J774 cells assessed as induce ferroportin ubiquitination and degradation at 0.04 uM incubated for 10 mins by immunoprecipitation assay; type: cell-based
[14] = target: T1, Ferroportin (Mus musculus); assay: Inhibition of ferroportin in mouse J774 cells assessed as induce ferroportin ubiquitination and degradation at 0.04 uM incubated for 120 mins by immunoprecipitation assay; type: cell-based
[15] = target: T1, Ferroportin (Mus musculus); assay: Inhibition of ferroportin in mouse J774 cells assessed as induce ferroportin ubiquitination and degradation at 0.8 uM incubated for 120 mins by immunoprecipitation assay; type: cell-based
[16] = target: T1, Ferroportin (Mus musculus); assay: Inhibition of ferroportin in mouse J774 cells assessed as induce ferroportin ubiquitination and degradation at 0.8 uM incubated for 10 mins by immunoprecipitation assay; type: cell-based
[17] = target: T1, Ferroportin (Mus musculus); assay: Inhibition of ferroportin in mouse J774 cells assessed as induce ferroportin ubiquitination and degradation at 0.05 uM incubated for 10 mins by immunoprecipitation assay; type: cell-based
[18] = target: T1, Ferroportin (Mus musculus); assay: Inhibition of ferroportin in mouse J774 cells assessed as induce ferroportin ubiquitination and degradation at 0.05 uM incubated for 120 mins by immunoprecipitation assay; type: cell-based

SMILES: O=C(NCc1ncccc1F)c1coc(CCNCCc2nc3c(Cl)cccc3[nH]2)n1
inhibition [7]: Active | inhibition [8]: Active

SMILES: O=C(NCc1ncccc1F)c1coc(C2CN(CCc3nc4ccccc4[nH]3)C2)n1
inhibition [9]: Active | Activity (Mus musculus [10]): 67% | inhibition [11]: Active | Activity (Mus musculus [12]): 49%

SMILES: O=C(NCc1ncccc1F)c1cnn(CCNCCc2nc3ccccc3[nH]2)c1
inhibition [3]: Active | inhibition [4]: Active

SMILES: Cc1cccnc1CNC(=O)c1csc(CCNCc2nc3ccccc3[nH]2)n1
Activity (Rattus norvegicus): Dose-dependent effect

SMILES: O=C(NCc1ncccc1F)c1csc(CCN(CCc2nc3ccccc3[nH]2)CCc2nc3ccccc3[nH]2)n1
inhibition [13]: Active | inhibition [14]: Active

Further lines, with some results ahead:

inhibition [1]: Active | inhibition [2]: Active
SMILES: O=C(NCc1ncccc1F)c1cnn(C2CN(CCc3nc4ccccc4[nH]3)C2)c1

inhibition [3]: Active | inhibition [4]: Active
SMILES: O=C(NCc1ncccc1F)c1csc(CCNCCc2nc3ccccc3[nH]2)n1
Activity (Mus musculus [5]): Dose-dependent effect | Activity (Mus musculus [6]): Active

inhibition [15]: Active | inhibition [16]: Active
SMILES: O=C(NCc1ncccc1F)c1coc(CCNCc2nc3ccccc3[nH]2)n1

inhibition [17]: Active | inhibition [18]: Active
SMILES: O=C(NCc1ncccc1F)c1coc(CCN(CCc2nc3ccccc3[nH]2)CCc2nc3ccccc3[nH]2)n1
